Assay results published in ChEMBL document CHEMBL6121004, “Design, synthesis, and biological evaluation of Ponatinib-based N-Phenylpyrimidine-2-amine derivatives as novel fibroblast growth factor receptor 4 (FGFR4) selective inhibitors” (Eur J Med Chem, 2025).
The source made the active and inactive calls. The calls are words filed in the database; no cut-off is given here.

Experiments:
Hep 3B2 [1] = experiment: Induction of apoptosis in human Hep3B cells assessed as late apoptotic cells at 0.5 uM incubated for 48 hrs by annexin V-FITC/propidium iodide staining based flow cytometry analysis (reference value: 5.20%); format: functional
Huh-7 [2] = experiment: Induction of apoptosis in human Huh-7 cells assessed as early apoptotic cells at 0.1 uM incubated for 48 hrs by annexin V-FITC/propidium iodide staining based flow cytometry analysis (reference value: 4.59%); format: functional
[3] = Toxicity in male nude mouse implanted with human Huh-7 cells assessed as liver damage at 12.5 to 50 mg/kg, ip administered for 15 days; format: organism-based; details: in vivo, 360 h, dose 12.5-50 mg/kg, time 15 day
Huh-7 [4] = experiment: Downregulation of FAK level in human Huh-7 cells at 0.25 to 1 uM incubated for 48 hrs by Western blot analysis; format: functional, cell-based; details: dose 0.25-1 µM
[5] = Oral bioavailability in BALB/c male mouse at 10 mg/kg measured upto 24 hrs by LC-MS/MS analysis; format: ADME, organism-based; details: in vivo
Homo sapiens = species on record: Homo sapiens; experiment: Inhibition of SRC (unknown origin) at 1 uM relative to control
[6] = Tmax in BALB/c male mouse at 10 mg/kg, po measured upto 24 hrs by LC-MS/MS analysis; format: ADME, organism-based; details: in vivo
Hep 3B2 [7] = experiment: Induction of apoptosis in human Hep3B cells assessed as viable cells at 0.5 uM incubated for 48 hrs by annexin V-FITC/propidium iodide staining based flow cytometry analysis (reference value: 84.91%); format: functional; details: read-out: Activity
[8] = Volume of distribution at steady state in BALB/c male mouse at 1 mg/kg, iv measured upto 24 hrs by LC-MS/MS analysis; format: ADME, organism-based; details: in vivo, read-out: Vdss
Huh-7 [9] = experiment: Antitumor activity against human Huh-7 cells xenografted in nude mouse assessed as tumor growth inhibition at 25 mg/kg, ip administered for 15 days; format: functional; details: Huh-7, 360 h, time 15 day, read-out: TGI
Hep 3B2 [10] = experiment: Induction of apoptosis in human Hep3B cells assessed as necrotic cells at 0.5 uM incubated for 48 hrs by annexin V-FITC/propidium iodide staining based flow cytometry analysis (reference value: 5.20%); format: functional
Hep 3B2 [11] = experiment: Induction of apoptosis in human Hep3B cells assessed as viable cells at 1 uM incubated for 48 hrs by annexin V-FITC/propidium iodide staining based flow cytometry analysis (reference value: 84.91%); format: functional; details: read-out: Activity
Hep 3B2 [12] = experiment: Induction of apoptosis in human Hep3B cells assessed as necrotic cells at 1 uM incubated for 48 hrs by annexin V-FITC/propidium iodide staining based flow cytometry analysis (reference value: 5.20%); format: functional
Huh-7 [13] = experiment: Antitumor activity against human Huh-7 cells xenografted in nude mouse assessed as tumor growth inhibition at 50 mg/kg, ip administered for 15 days; format: functional; details: Huh-7, 360 h, time 15 day, read-out: TGI
Hep3B = experiment: Inhibition of MAPK phosphorylation in human Hep3B cells at 0.4 uM incubated for 48 hrs by Western blot analysis; format: cell-based
[14] = Toxicity in male nude mouse implanted with human Huh-7 cells assessed as lung damage at 12.5 to 50 mg/kg, ip administered for 15 days; format: organism-based; details: in vivo, 360 h, dose 12.5-50 mg/kg, time 15 day
MDA-MB-231 = experiment: cells; details: Homo sapiens, MDA-MB-231, 72 h
Description: Antiproliferative activity against human MDA-MB-231 cells assessed as inhibition of cell proliferation incubated for 72 hrs by MTT assay

Hep 3B2 [15] = experiment: Induction of apoptosis in human Hep3B cells assessed as late apoptotic cells at 0.25 uM incubated for 48 hrs by annexin V-FITC/propidium iodide staining based flow cytometry analysis (reference value: 5.20%); format: functional
Hep 3B2 [16] = experiment: Effect on FGFR4 level in human Hep3B cells at 0.25 to 1 uM incubated for 48 hrs by Western blot analysis; format: functional, cell-based; details: dose 0.25-1 µM
Hep 3B2 [17] = experiment: Effect on MAPK level in human Hep3B cells at 0.25 to 1 uM incubated for 48 hrs by Western blot analysis; format: functional, cell-based; details: dose 0.25-1 µM
[18] = MRT (0 to t) in BALB/c male mouse at 1 mg/kg, iv measured upto 24 hrs by LC-MS/MS analysis; format: ADME, organism-based; details: in vivo
Hep 3B2 [19] = experiment: Induction of apoptosis in human Hep3B cells assessed as viable cells at 0.25 uM incubated for 48 hrs by annexin V-FITC/propidium iodide staining based flow cytometry analysis (reference value: 84.91%); format: functional; details: read-out: Activity
Huh-7 [20] = experiment: Induction of apoptosis in human Huh-7 cells assessed as necrotic cells at 0.5 uM incubated for 48 hrs by annexin V-FITC/propidium iodide staining based flow cytometry analysis (reference value: 5.20%); format: functional
Hep 3B2 [21] = experiment: Induction of apoptosis in human Hep3B cells assessed as early apoptotic cells at 0.5 uM incubated for 48 hrs by annexin V-FITC/propidium iodide staining based flow cytometry analysis (reference value: 4.69%); format: functional
Huh-7 [22] = experiment: Induction of apoptosis in human Huh-7 cells assessed as late apoptotic cells at 0.5 uM incubated for 48 hrs by annexin V-FITC/propidium iodide staining based flow cytometry analysis (reference value: 5.20%); format: functional
[23] = Toxicity in male nude mouse implanted with human Huh-7 cells assessed as kidney damage at 12.5 to 50 mg/kg, ip administered for 15 days; format: organism-based; details: in vivo, 360 h, dose 12.5-50 mg/kg, time 15 day
[24] = Half life in BALB/c male mouse at 10 mg/kg, po measured upto 24 hrs by LC-MS/MS analysis; format: ADME, organism-based; details: in vivo
[25] = AUC (0 to t) in BALB/c male mouse at 10 mg/kg, po measured upto 24 hrs by LC-MS/MS analysis; format: ADME, organism-based; details: in vivo
Huh-7 [26] = experiment: Induction of apoptosis in human Huh-7 cells assessed as viable cells at 1 uM incubated for 48 hrs by annexin V-FITC/propidium iodide staining based flow cytometry analysis (reference value: 84.91%); format: functional; details: read-out: Activity
Huh-7 [27] = experiment: Induction of apoptosis in human Huh-7 cells assessed as viable cells at 0.5 uM incubated for 48 hrs by annexin V-FITC/propidium iodide staining based flow cytometry analysis (reference value: 84.91%); format: functional; details: read-out: Activity
[28] = Half life in BALB/c male mouse at 1 mg/kg, iv measured upto 24 hrs by LC-MS/MS analysis; format: ADME, organism-based; details: in vivo
Huh-7 [29] = experiment: Antitumor activity against human Huh-7 cells xenografted in nude mouse assessed as tumor growth inhibition at 12.5 mg/kg, ip administered for 15 days; format: functional; details: Huh-7, 360 h, time 15 day, read-out: TGI
Hep 3B2 [30] = experiment: Induction of apoptosis in human Hep3B cells assessed as necrotic cells at 0.25 uM incubated for 48 hrs by annexin V-FITC/propidium iodide staining based flow cytometry analysis (reference value: 5.20%); format: functional
[31] = Toxicity in male nude mouse implanted with human Huh-7 cells assessed as body weight loss at 12.5 to 50 mg/kg, ip administered for 15 days; format: organism-based; details: in vivo, 360 h, dose 12.5-50 mg/kg, time 15 day
Huh-7 [32] = experiment: Induction of apoptosis in human Huh-7 cells assessed as late apoptotic cells at 0.1 uM incubated for 48 hrs by annexin V-FITC/propidium iodide staining based flow cytometry analysis (reference value: 5.20%); format: functional
[33] = AUC (0 to t) in BALB/c male mouse at 1 mg/kg, iv measured upto 24 hrs by LC-MS/MS analysis; format: ADME, organism-based; details: in vivo
Huh-7 [34] = experiment: Induction of apoptosis in human Huh-7 cells assessed as viable cells at 0.1 uM incubated for 48 hrs by annexin V-FITC/propidium iodide staining based flow cytometry analysis (reference value: 84.91%); format: functional; details: read-out: Activity

Compound: C=CC(=O)Nc1cccc(C)c1Nc1ncc(C#Cc2cccc(C(=O)Nc3ccc(CN4CCN(C)CC4)c(C(F)(F)F)c3)c2)cn1
- Activity (Hep 3B2 [1]): 18.41%
- Activity (Huh-7 [2]): 3.69%
- Activity [3]: Non-toxic
- Activity (Huh-7 [4]): Active
- bioavailability [5]: 17.8%
- inhibition (Homo sapiens): < 70%
- Tmax [6]: 60 min
- viability at 0.5 µM (Hep 3B2 [7]): 68.9%
- Vd [8]: 3.52 L/kg
- inhibition in vivo at 25 mg/kg (Huh-7 [9]): 50.3%
- Activity (Hep 3B2 [10]): 6.93%
- viability at 1 µM (Hep 3B2 [11]): 63.2%
- Activity (Hep 3B2 [12]): 5.13%
- inhibition in vivo at 50 mg/kg (Huh-7 [13]): 69.8%
- inhibition (Hep3B): Active
- Activity [14]: Non-toxic
- IC50 (MDA-MB-231): 5.6 µM
- Activity (Hep 3B2 [15]): 9.17%
- Activity (Hep 3B2 [16]): Active
- Activity (Hep 3B2 [17]): Active
- MRT last at 24 h [18]: 46.2 min
- viability at 0.25 µM (Hep 3B2 [19]): 80.8%
- Activity (Huh-7 [20]): 8.41%
- Activity (Hep 3B2 [21]): 5.73%
- Activity (Huh-7 [22]): 11.2%
- Activity [23]: Non-toxic
- half-life [24]: 84 min
- AUC(0-t) at 24 h [25]: 318 ng·h/mL
- viability at 1 µM (Huh-7 [26]): 63%
- viability at 0.5 µM (Huh-7 [27]): 75.3%
- half-life [28]: 47.4 min
- inhibition in vivo at 12.5 mg/kg (Huh-7 [29]): 34.9%
- Activity (Hep 3B2 [30]): 5.62%
- Activity [31]: Non-toxic
- Activity (Huh-7 [32]): 5.12%
- AUC(0-t) at 24 h [33]: 241 ng·h/mL
- viability at 0.1 µM (Huh-7 [34]): 88.8%
